Results from patent US20040072801A1, “Sterols bearing pendant allosteric effectors of hemoglobin, and uses thereof” (priority 2002, published 2004).
Where “and” joins values, the source holds several entries; their conditions need not be identical. Equal values may be shown once. Entries after “also recorded” stand apart in the source; their conditions may differ. Read-outs that look alike come from different tables or passages of the source.

Tests used:
[1] = system: mouse RBCs in whole blood; assay: P50 of RBCs after in vitro incubation of mouse whole blood with effector (Hemox Analyzer); format: cell-based; settings: for P50 Increase %: mouse WB
[2] = system: human RBCs in whole blood; assay: P50 of RBCs after in vitro incubation of human whole blood with effector (Hemox Analyzer); settings: for P50 Increase % / P50 mm HG EFF:WB: EFF:WB 1:1.5; for lysis of the RBC: physiological or nearly physiological osmotic pressure, in vitro whole blood; for lysis of red blood cells (hemolysis): tested on whole blood
stripped hemoglobin = stripped hemoglobin (Homo sapiens, UniProt P68871); settings: pH 7.4, cited from earlier work
human RBCs = settings: large-volume continuous-flow electroporation; cited from earlier work
C57B1/6 mice [3] = assay: Tolerability and pharmacodynamics of SV184 and SV192 after iv injection; format: in vivo, mouse
C57B1/6 mice [4] = assay: as above; format: in vivo, mouse; settings: for toxicity upon iv injection in mice: 30 mM effector solution; for shift of P50 in blood of surviving mice: less than 200 μL iv, blood taken 4 and 24 hours after injection
Procedure: The tolerability and pharmacodynamics of the compounds SV184 and SV192 were tested in a small number of C57B1/6 mice. Mice receiving the whole volume of 200 μL of (30 mM) effector solution died immediately after injection or during injection (injection time 10-20 min). Eight mice receiving less than 200 μL of the compound solution survived. These mice were fast breathing and shaking, but recovered after 4 hours. […] Therefore, new derivatives were synthesized in our labs.

Free Hemoglobin = Free Hemoglobin (Homo sapiens, UniProt P68871); assay: P50 of free hemoglobin with effector (Table 1); format: biochemical; settings: ratio 1:1 (2.5 mM:2.5 mM), pH 7.1-7.2, 37° C.
Description: The sample chamger contained:

[5] = target: T1, C57B1/6 mice free hemoglobin (Mus musculus, UniProt P02088); assay: P50 of mouse free hemoglobin after incubation with KF effectors; format: biochemical; settings: effector 2.5 mM : mouse hemoglobin 2.5 mM, 1:1; pH 7.0
T1 construct: P50 values of C57B1/6 mice free hemoglobin after incubation with; from tissue; host or cells: blood of C57Bl/6 mice (inferred; the preparation is not described)
Procedure: The pH of the compound solutions was adjusted to approximately 7.1 and effector solution (2.5 mM) and mouse hemoglobin (2.5 mM) were mixed at 1:1 ratio. The osmolarity was adjusted to 218-310 mOsM. Effectors and whole blood (WB) at 1:1.5 were incubated at 37° C. for 60 minutes.
They were tested for P50 right shift with mouse hemoglobin. The pH was adjusted to approximately 7.0 and effector solution (2.5 mM) and mouse hemoglobin (2.5 mM) were mixed at 1:1 ratio. P50 values were measured as before.

mice RBC = format: in vivo; settings: ip 30, 45 and 60 mM; three hours after injection
Procedure: Three hours after injection, samples of blood were taken for P50 measurements. […] We have observed the shift of the P50 values in the blood from the injected animals over 3 days.
The P50 shift of RBC is similar to iv injections at concentrations of 30 and 45 mM.

C57B1/6 mice [6] = system: C57B1/6 mice
[7] = EFF:WB 1:0.375, 220 mOsM, 30 mM
[8] = iv 200 μL of 30 mM, 1 mouse injected
[9] = EFF:WB 1:0.375, 224 mOsM, 30 mM

Sequence of stripped hemoglobin (P69905 2-142 partner limits assumed): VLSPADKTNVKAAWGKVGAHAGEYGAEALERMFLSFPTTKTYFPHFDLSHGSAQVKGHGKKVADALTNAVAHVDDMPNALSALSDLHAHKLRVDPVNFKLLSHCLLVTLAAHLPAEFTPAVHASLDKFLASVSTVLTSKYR
Sequence of stripped hemoglobin (P68871 2-147 limits assumed): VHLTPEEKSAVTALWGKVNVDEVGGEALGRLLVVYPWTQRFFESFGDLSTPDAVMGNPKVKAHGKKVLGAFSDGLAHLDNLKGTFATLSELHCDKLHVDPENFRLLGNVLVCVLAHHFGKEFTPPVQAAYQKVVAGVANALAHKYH
T1 sequence (P01942 2-142 partner limits assumed): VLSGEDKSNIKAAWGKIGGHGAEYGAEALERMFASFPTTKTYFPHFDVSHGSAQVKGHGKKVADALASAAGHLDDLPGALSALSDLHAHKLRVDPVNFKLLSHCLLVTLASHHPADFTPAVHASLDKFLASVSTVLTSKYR
T1 sequence (P02088 2-147 limits assumed): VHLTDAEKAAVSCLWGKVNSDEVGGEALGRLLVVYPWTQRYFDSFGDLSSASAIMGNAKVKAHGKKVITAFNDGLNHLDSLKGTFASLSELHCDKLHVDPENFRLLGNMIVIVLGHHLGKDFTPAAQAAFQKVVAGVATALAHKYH
Sequence of Free Hemoglobin (P69905 2-142 partner limits assumed): as the sequence (P69905 2-142 partner limits assumed) above
Sequence of Free Hemoglobin (P68871 2-147 limits assumed): as the sequence (P68871 2-147 limits assumed) above

Compound: CC(C)CCCC(C)C1CCC2C3CC=C4CC(OC(=O)OP(=O)(O)OC5C(OP(=O)(O)O)C(OP(=O)(O)O)C(OP(=O)(O)O)C(OP(=O)(O)O)C5OP(=O)(O)O)CCC4(C)C3CCC12C.CN(C)C1CCCCC1.CN(C)C1CCCCC1.CN(C)C1CCCCC1.CN(C)C1CCCCC1.CN(C)C1CCCCC1.CN(C)C1CCCCC1.CN(C)C1CCCCC1.CN(C)C1CCCCC1 (centres unmarked) [SV192ter]
- P50 mm HG EFF:WB [1, 7]: 46.4 mm Hg
- P50 mm HG EFF:WB ([1]; EFF:WB 1:1.5, 264 mOsM, 15 mM): 42.2 mm Hg
- P50 mm HG EFF:WB ([1]; EFF:WB 1:1.5, 276 mOsM, 30 mM): 43.5 mm Hg
- P50 mm HG EFF:WB ([1]; EFF:WB 1:1.5, 283 mOsM, 5 mM): 43.1 mm Hg
- P50 mm HG EFF:WB ([1]; EFF:WB 1:1.5, 314 mOsM, 60 mM): 43.1 mm Hg
- P50 mm HG EFF:WB ([1]; EFF:WB 1:1.5, 320 mOsM, 30 mM): 41.4 mm Hg and 43.4 mm Hg and 41.9 mm Hg
- P50 mm HG EFF:WB ([1]; EFF:WB 1:1.5, 320 mOsM, 50 mM): 42.6 mm Hg
- P50 Increase % [1, 7]: 8%
- P50 Increase % ([1]; EFF:WB 1:1.5, 264 mOsM, 15 mM): 2%
- P50 Increase % ([1]; EFF:WB 1:1.5, 276 mOsM, 30 mM): 5%
- P50 Increase % ([1]; EFF:WB 1:1.5, 283 mOsM, 5 mM): 7%
- P50 Increase % ([1]; EFF:WB 1:1.5, 314 mOsM, 60 mM): 4%
- P50 Increase % ([1]; EFF:WB 1:1.5, 320 mOsM, 30 mM): 8% and 13% and 9%
- P50 Increase % ([1]; EFF:WB 1:1.5, 320 mOsM, 50 mM): 5%
- P50 Increase % ([2]; human WB, 202 mOsM, 30 mM): 5%
- P50 mm HG EFF:WB ([2]; human WB, 202 mOsM, 30 mM): 26.3 mm Hg
- P50 Increase % ([2]; human WB, 258 mOsM, 30 mM): 2%
- P50 mm HG EFF:WB ([2]; human WB, 258 mOsM, 30 mM): 25.6 mm Hg
- P50 Increase % ([2]; human WB, 274 mOsM, 30 mM): 3%
- P50 mm HG EFF:WB ([2]; human WB, 274 mOsM, 30 mM): 26.8 mm Hg
- P50 Increase % ([2]; human WB, 303 mOsM, 30 mM): 4%
- P50 mm HG EFF:WB ([2]; human WB, 303 mOsM, 30 mM): 26.2 mm Hg
- lysis of the RBC [2]: no lysis

Compound: O=C(O)C(COP(=O)(O)O)OP(=O)(O)O (centres unmarked) [2,3-Diphosphoglycerate]
- O2 half-saturation pressure P(O2)(½) of stripped hemoglobin (stripped hemoglobin; 25 C, without effector 4.3): 12.0 mm Hg
- O2 half-saturation pressure P(O2)(½) of stripped hemoglobin (stripped hemoglobin; 37 C, without effector 9.3): 23.7 mm Hg

Compound: CC(C)CCCC(C)C1CCC2C3CC=C4CC(OC(=O)OP(=O)(O)OC5C(OP(=O)(O)O)C(OP(=O)(O)O)C(OP(=O)(O)O)C(OP(=O)(O)O)C5OP(=O)(O)O)CCC4(C)C3CCC12C.CCCCN(CCCC)CCCC.CCCCN(CCCC)CCCC.CCCCN(CCCC)CCCC.CCCCN(CCCC)CCCC.CCCCN(CCCC)CCCC.CCCCN(CCCC)CCCC (centres unmarked) [Effector 2a, Inositol hexaphosphate-cholesteroloxycarbonyl, hexa tributyl-ammonium salt]
- lysis of red blood cells (hemolysis) [2]: triggered the lysis of the red blood cells

Compound: CC(C)CCCC(C)C1CCC2C3CC=C4CC(OC(=O)OP(=O)(O)OC5C(OP(=O)(O)O)C(OP(=O)(O)O)C(OP(=O)(O)O)C(OP(=O)(O)O)C5OP(=O)(O)O)CCC4(C)C3CCC12C.CN(C)C1CCCCC1.CN(C)C1CCCCC1.CN(C)C1CCCCC1.CN(C)C1CCCCC1.CN(C)C1CCCCC1.CN(C)C1CCCCC1.CN(C)C1CCCCC1.CN(C)C1CCCCC1 (centres unmarked) [SV192bis]
- P50 Increase % ([2]; human WB, 220 mOsM, 30 mM): 6%
- P50 mm HG EFF:WB ([2]; human WB, 220 mOsM, 30 mM): 26.6 mm Hg
- P50 Increase % ([2]; human WB, 272 mOsM, 30 mM): 6%
- P50 mm HG EFF:WB ([2]; human WB, 272 mOsM, 30 mM): 24 mm Hg
- P50 Increase % ([2]; human WB, 306 mOsM, 30 mM): 13%
- P50 mm HG EFF:WB ([2]; human WB, 306 mOsM, 30 mM): 28.3 mm Hg
- lysis of the RBC [2]: no lysis

Compound: O=P(O)(O)O[C@H]1[C@H](OP(=O)(O)O)[C@@H](OP(=O)(O)O)[C@H](OP(=O)(O)O)[C@@H](OP(=O)(O)O)[C@H]1OP(=O)(O)O [IHP, inositol hexaphosphate]
- O2 half-saturation pressure P(O2)(½) of stripped hemoglobin (stripped hemoglobin; 25 C, without effector 4.3): 48.4 mm Hg
- O2 half-saturation pressure P(O2)(½) of stripped hemoglobin (stripped hemoglobin; 37 C, without effector 9.3): 96.4 mm Hg
- P50 of human RBCs with encapsulated IHP (human RBCs): approximately 50 torr

Compound: CC(C)CCCC(C)C1CCC2C3CC=C4CC(OC(=O)OP(=O)([O-])OC5C(OP(=O)([O-])[O-])C(OP(=O)([O-])[O-])C(OP(=O)([O-])[O-])C(OP(=O)([O-])[O-])C5OP(=O)([O-])[O-])CCC4(C)C3CCC12C.[Na+].[Na+].[Na+].[Na+].[Na+].[Na+].[Na+].[Na+].[Na+].[Na+].[Na+] (centres unmarked) [SV184, Inositol hexaphosphate-cholesteroloxycarbonyl, undecanyl sod ium salt]
- Shift of P50 % (C57B1/6 mice [3]; iv 150 μL of 30 nM): <5%
- Number of mice died (C57B1/6 mice [3]; iv 150 μL of 30 mM, 4 mice injected): 0
- Number of mice died (C57B1/6 mice [3]; [8]): 1
- P50 mm HG EFF:WB [1, 9]: 44.3 mm Hg
- P50 mm HG EFF:WB ([1]; EFF:WB 1:1.5, 310 mOsM, 30 mM): 41.8 mm Hg
- P50 Increase % [1, 9]: 15%
- P50 Increase % ([1]; EFF:WB 1:1.5, 310 mOsM, 30 mM): 9%
- P50 Increase % ([2]; human WB, 232 mOsM, 30 mM): 16%
- P50 mm HG EFF:WB ([2]; human WB, 232 mOsM, 30 mM): 30.4 mm Hg
- P50 mm HG EFF:WB ([2]; human WB, 310 mOsM, 30 mM): 30 mm Hg
- P50 (FIG. 2, Curve B) (C57B1/6 mice [4]; IV, WB mouse, 1 h, saline control P50=33.3): 41.0
- % increase of P50 (FIG. 2) (C57B1/6 mice [4]; IV, WB mouse, 1 h, versus saline control): 23.12%
- toxicity upon iv injection in mice (C57B1/6 mice [4]): high level of toxicity
- shift of P50 in blood of surviving mice (C57B1/6 mice [4]): did not show a significant shift of P50

Compound: CC(C)CCCC(C)C1CCC2C3CC=C4CC(OC(=O)OP(=O)(O)OC5C(OP(=O)(O)O)C(OP(=O)(O)O)C(OP(=O)(O)O)C(OP(=O)(O)O)C5OP(=O)(O)O)CCC4(C)C3CCC12C.CN(C)C1CCCCC1.CN(C)C1CCCCC1.CN(C)C1CCCCC1.CN(C)C1CCCCC1.CN(C)C1CCCCC1.CN(C)C1CCCCC1.CN(C)C1CCCCC1.CN(C)C1CCCCC1 (centres unmarked) [SV192, Inositol hexaphosphate-cholesteroloxycarbonyl, octa N,N-dimethyl-cyclohexylammonium salt]
- Shift of P50 % (C57B1/6 mice [3]; iv 135 μL of 30 nM): <3%
- Number of mice died (C57B1/6 mice [3]; iv 135 μL of 30 mM, 2 mice injected): 0
- Number of mice died (C57B1/6 mice [3]; iv 165 μL of 30 mM, 2 mice injected): 2
- lysis of RBC on incubation ([2]; human WB, EFF:WB 1:0.375, 224 mOsM, 30 mM): Lyses; also recorded: lysis
- P50 Increase % ([2]; human WB, 224 mOsM, 30 mM): 26%
- P50 mm HG EFF:WB ([2]; human WB, 224 mOsM, 30 mM): 29.5 mm Hg
- P50 Increase % ([2]; human WB, 310 mOsM, 30 mM): 25%
- P50 mm HG EFF:WB ([2]; human WB, 310 mOsM, 30 mM): 30 mm Hg
- lysis of the RBC [2]: no lysis
- lysis of red blood cells (hemolysis) ([2]; listed as 2b): did not trigger hemolysis
- lysis of red blood cells (hemolysis) ([2]; listed as IHP-cholesterol derivative with N,N-dimethyl-cyclohexylammonium countercations): without any detectable cell lysis
- P50 mm Hg EFF:WB (fHb) (Free Hemoglobin): 32.5 mm Hg
- Number of mice died (C57B1/6 mice [4]; [8]): 1
- toxicity upon iv injection in mice (C57B1/6 mice [4]): high level of toxicity
- shift of P50 in blood of surviving mice (C57B1/6 mice [4]): did not show a significant shift of P50

Compound: Inositol hexaphosphate-cholesteroloxycarbonyl, hepta N,N-dimethyl-cyclohexylammonium salt [KF16]
- P50 Increase % [5]: 90%
- P50 mm Hg EFF/fHb [5]: 52.17 mm Hg
- P50 mm Hg EFF:WB ([1]; 1:1.5, 283 mOsM, pH 7.1, 30 mM, 60 min 37° C.): 36.14 mm Hg
- right shift of P50 after ip injection (mice RBC): strong right shift of P50
- P50 Increase % (C57B1/6 mice [6]; iv 200 μL of 60 mM, 2 h after injection): > 10%
- right shift in P50 value at lower concentrations (C57B1/6 mice [6]; iv, concentrations lower than 60 mM): 6-9%
